According to US8829039B2, “Dihydroindolinone derivatives” (Shanghai Institute of Pharmaceutical Industry, priority 2008, dated 2014):

Legend:
[1] = test system: Human cervical cancer cell Hela; experiment: Anti-tumor activity assay (MTT), Hela; format: cell-based; conditions: 48 hrs, samples freshly prepared with DMSO, read-out: Inhibition rate; for inhibition at 0.1 µg/mL: final concentration 0.1 μg/mL; for inhibition at 1 µg/mL: final concentration 1 μg/mL; for inhibition at 10 µg/mL: final concentration 10 μg/mL
Procedure: (§1) These tests were carried out using conventional operations in the art. Specifically, the following materials and methods were employed:
(§2) Human cervical cancer cell Hela, human liver cancer cell SMMC-7721, human lung cancer cell A549, poorly differentiated human gastric adenocarcinoma cell BGC-823, human breast cancer cell MDA-MB-231.
(§3) To a bottle containing exponential growth phase cells in good condition, 0.25% trypsin solution was added. […] The cell suspension was seeded in a 96-well plate with an amount of 100 μL/well, incubated in a CO2 incubator for 24 hrs. 20 μL/well of tested compounds were added, followed by […], of 10% serum medium, and incubated for 48 hrs. 20 μL/well of MTT (5 mg/mL) was added to the 96-well plate, and the cells were incubated for 4 hrs in the incubator. After removing the supernatant, 150 μL/well of DMSO was added, and the cells were shaked in a horizontal swing bed for 10 minutes. Optical density value (OD value) of each well was measured with an ELISA analyzer at 490 nm, and cell inhibition rate was calculated. The corresponding solvent was used as negative control, and paclitaxel was used as positive control.

[2] = test system: human liver cancer cell SMMC-7721; experiment: Anti-tumor activity assay (MTT), SMMC-7721; format: cell-based; conditions: 48 hrs, samples stored at −20° C. for one week, read-out: Inhibition rate; for inhibition at 0.1 µg/mL: final concentration 0.1 μg/mL; for inhibition at 1 µg/mL: final concentration 1 μg/mL; for inhibition at 10 µg/mL: final concentration 10 μg/mL
Procedure: as §1, §2, §3

[3] = test system: poorly differentiated human gastric adenocarcinoma cell BGC-823; experiment: Anti-tumor activity assay (MTT), BGC-823; format: cell-based; conditions: 48 hrs, samples stored at −20° C. for one week, read-out: Inhibition rate; for inhibition at 0.1 µg/mL: final concentration 0.1 μg/mL; for inhibition at 1 µg/mL: final concentration 1 μg/mL; for inhibition at 10 µg/mL: final concentration 10 μg/mL
Procedure: as §1, §2, §3

[4] = test system: human lung cancer cell A549; experiment: Anti-tumor activity assay (MTT), A549; format: cell-based; conditions: 48 hrs, samples stored at −20° C. for one week, read-out: Inhibition rate; for inhibition at 0.1 µg/mL: final concentration 0.1 μg/mL; for inhibition at 1 µg/mL: final concentration 1 μg/mL; for inhibition at 10 µg/mL: final concentration 10 μg/mL
Procedure: as §1, §2, §3

[5] = test system: human breast cancer cell MDA-MB-231; experiment: Anti-tumor activity assay (MTT), MDA-MB-231; format: cell-based; conditions: 48 hrs, samples stored at −20° C. for one week, read-out: Inhibition rate; for inhibition at 0.1 µg/mL: final concentration 0.1 μg/mL; for inhibition at 1 µg/mL: final concentration 1 μg/mL; for inhibition at 10 µg/mL: final concentration 10 μg/mL
Procedure: as §1, §2, §3

Lung cancer cell H460 = experiment: Inhibition of tumor cell proliferation in vitro (MTT), H460; format: cell-based; conditions: Homo sapiens, NCI-H460, 48 hrs, read-out: Growth inhibition in vitro IC50
Procedure: (§4) The activity assay of the compounds of the invention was carried out through common methods in the art. Commercially available Sunitinib was used as positive control, and lung cancer cell H460, colon cancer cell COLO205 and HT29, breast cancer cell A435 were used as exemplary tumor cells. The tested compounds were prepared by the methods disclosed in the Examples above.
(§5) A certain amount (100 μL/well, 0.5−1×10^4 cells/mL) of lung cancer cell H460, colon cancer cell COLO205, and breast cancer cell A435, etc. in logarithmic growth phase were seeded in a 96-well plate, and incubated in an incubator for 24 hrs at 37° C. and 5% CO2. Afterwards, tested compounds and positive control (20 μL/wells) were added, followed by 80 µL of 10% serum medium, and then the tumor cells were incubated for further 48 hrs at 37° C. and 5% CO2. Afterwards, MTT (5 mg/mL) was added to the 96-well plates (20 μL/well), and the cells were incubated for another 4 h. After removing the supernatant, the cells were dissolved with DMSO (150 μL/well) and measured with a microplate reader at 490 nm.

[6] = test system: colon cancer cell COLO205; experiment: Inhibition of tumor cell proliferation in vitro (MTT), COLO205; format: cell-based; conditions: Homo sapiens, COLO 205, 48 hrs, read-out: Growth inhibition in vitro IC50
Procedure: as §4, §5

breast cancer cell A435 = experiment: Inhibition of tumor cell proliferation in vitro (MTT), A435; format: cell-based; conditions: 48 hrs, read-out: Growth inhibition in vitro IC50
Procedure: as §4, §5

[7] = test system: human colon cancer HT-29 cells transplanted in nude mice; experiment: Growth inhibition of human cancer HT-29 cells transplanted in nude mice; format: in vivo; conditions: for Body weight d0 / Body weight d21: nude mice with HT-29 tumor; for Body weight d0: d0, time of administration in separate cages; for Body weight d0 / TV d0: 30 mg/kg group; for Body weight d21 / T/C (%) / RTV / TV d21: 30 mg/kg intragastrically once a day for 21 days; for T/C (%): relative tumor proliferation rate TRTV/CRTV; for RTV: relative tumor volume TVt/TV0; for TV d0: tumor volume at d0, time of administration in separate cages; for TV d21: tumor volume at d21
Procedure: A piece of tumor tissue in vigorous growth phase was obtained and cut into the size of about 1.5 mm^3, and subcutaneously inoculated into the right axillary region of nude mice aseptically. Diameters of transplanted tumors in nude mice were measured with a vernier caliper. After tumors grew to 100˜300 mm^3, the animals were randomly divided into 6 groups: model control group, Sunitinib group (30 mg/kg), Compound 1 group (30 mg/kg), Compound 2 group (30 mg/kg), Compound 3 group (30 mg/kg), Compound 4 group (30 mg/kg). […] Meanwhile, the negative control group was administered equivalent amount of sterile saline. The dynamic observation of antitumor effects of compounds 1-4 and Sunitinib was performed by measuring tumor diameters. […] The general behavior of nude mice was observed and recorded daily. (1) Tumor volume (TV), calculated by the equation: […] wherein a, b represent length and width, respectively. […] RTV=TVt/TV0 wherein TV0 represents the tumor volume at the beginning of administration in separated cages (ie. d0), TVt represents the tumor volume of each measurement. […] T/C %=(TRTV/CRTV)×100% TRTV: RTV of positive control group and each test compound group. CRTV: RTV of model control group.

Fibroblast NIH/3T3 = experiment: Inhibition of fibroblast NIH/3T3 proliferation (MTT); format: cell-based; conditions: Mus musculus, NIH3T3, 48 h, read-out: Inhibition of NIH/3T3 cell proliferation in vitro IC50
Excerpt: The method commonly used at present for studying fibroblast proliferation associated diseases, i.e., for studying tissue and organ fibrosis, is measuring effects of test compounds on NIH/3T3 cell proliferation (Gao Z. M., Wan K., Effect of inhibition of NIH/3T3 cell proliferation by Cantharidin on prevention and treatment of organ and tissue fibrosis. Chinese Journal of Clinical Rehabilitation, 2004 (2). Tao Y. Y., Wang X. L., Effects of Salvianolic Acid-B on TGF-β1/ERK Signaling Transduction in NIH/3T3 Fibroblast. Journal of Capital Medical University, 2007 (2)).
Fibroblast NIH/3T3 in logarithmic growth phase was seeded in a 96-well plate, by a certain number of cells (100 μL/well, 0.5−1×10^4 cells/mL). After incubating for 24 h, the screened samples (20 μl/well) were added (directly added after cell suspension was seeded in the plate), incubated for further 48 h at 37° C. and 5% CO2. Afterwards, MTT (5 mg/mL) was added to the 96-well plate (20 μL/well). The cells were incubated for another 4 h, and then dissolved with DMSO (150 μL/well) and measured with a microplate reader at 490 nm. The inhibition rate and IC50 were calculated.

Structure (SMILES)	inhibition at 0.1 µg/mL [1] [%]	inhibition at 1 µg/mL [1] [%]	inhibition at 10 µg/mL [1] [%]	inhibition at 0.1 µg/mL [2] [%]	inhibition at 1 µg/mL [2] [%]	inhibition at 10 µg/mL [2] [%]	inhibition at 0.1 µg/mL [3] [%]	inhibition at 1 µg/mL [3] [%]	inhibition at 10 µg/mL [3] [%]	inhibition at 0.1 µg/mL [4] [%]	inhibition at 1 µg/mL [4] [%]	inhibition at 10 µg/mL [4] [%]	inhibition at 0.1 µg/mL [5] [%]	inhibition at 1 µg/mL [5] [%]	inhibition at 10 µg/mL [5] [%]	IC50 (Lung cancer cell H460) [nM]	IC50 [6] [nM]	IC50 (breast cancer cell A435) [nM]	Body weight d0 [7] [g]	Body weight d21 [7] [g]	further results
Cc1[nH]c(/C=C2\C(=O)Nc3ccc(F)cc32)c(C)c1C(=O)NCCC1CCCN1C (centres unmarked) [Compound 2, N-[(1-methylpyrrolidin-2-yl)ethyl]-5-(5-fluoro-2-oxo-1,2-dihydroindole-3-methylene)-2,4-dimethyl-1H-pyrrole-3-formamide]	-6.18	24.7	97.2	-6.59	-10.8	74.8	4.73	20.2	76.2	0.59	29.9	100	-0.2	16.5	71.6	160	110	85	19.7 ± 1.7	19.7 ± 1.6	T/C (%) [7]: 17.8%; RTV [7]: 1.6 ± 0.9; TV d0 [7]: 193.5 ± 61.9 mm^3; TV d21 [7]: 342.9 ± 284.7 mm^3; IC50 (Fibroblast NIH/3T3): 536 nM; melting point: 241 to 244 °C
CCN1CCCC1CNC(=O)c1c(C)[nH]c(/C=C2\C(=O)Nc3ccc(F)cc32)c1C (centres unmarked) [Compound 1, N-[(1-ethylpyrrolidin-2-yl)methyl]-5-(5-fluoro-2-oxo-1,2-dihydroindole-3-methylene)-2,4-dimethyl-1H-pyrrole-3-formamide]	4.69	32.5	97.4	-21.2	-0.47	88.5	14.8	20	93.9	18.6	31.1	99.3	-8.3	6.9	92.2	61	78	63	20.2 ± 1.9	21.5 ± 1.3	growth inhibition of human colon cancer HT-29 cells transplanted in nude mice (in words) ([7]; 30 mg/kg continuously administered intragastrically): strongest inhibition of tumor proliferation; T/C (%) [7]: 10.1%; RTV [7]: 0.9 ± 0.2; TV d0 [7]: 194.7 ± 57.7 mm^3; TV d21 [7]: 163.7 ± 33.6 mm^3; IC50 (Fibroblast NIH/3T3): 205 nM; melting point: 232 to 236 °C
